Test results: the NIST ThermoML archive (doi:10.1016/j.jct.2012.03.031)

Assay: molar heat capacity at constant pressure
Details: 101.33 kPa

CCCCc1ccc(C(=O)Oc2ccc(C#N)c(F)c2)cc1 [4-cyano-3-fluorophenyl 4-butylbenzoate]
Details | molar heat capacity at constant pressure [J/K/mol]
141.25 K, Crystal 1, Small (less than 1 g) adiabatic calorimetry | 201.94
142.25 K, Crystal 1, Small (less than 1 g) adiabatic calorimetry | 202.81
142.97 K, Crystal 2, Small (less than 1 g) adiabatic calorimetry | 216.4
143.16 K, Crystal 1, Small (less than 1 g) adiabatic calorimetry | 203.97
144.71 K, Crystal 1, Small (less than 1 g) adiabatic calorimetry | 205.52
145.06 K, Crystal 1, Small (less than 1 g) adiabatic calorimetry | 206.05
145.3 K, Crystal 2, Small (less than 1 g) adiabatic calorimetry | 219.62
146.94 K, Crystal 1, Small (less than 1 g) adiabatic calorimetry | 208.17
147.18 K, Crystal 1, Small (less than 1 g) adiabatic calorimetry | 208.18
147.65 K, Crystal 2, Small (less than 1 g) adiabatic calorimetry | 221.78
148.81 K, Crystal 1, Small (less than 1 g) adiabatic calorimetry | 210.18
149.66 K, Crystal 1, Small (less than 1 g) adiabatic calorimetry | 210.87
150 K, Crystal 1, Vacuum adiabatic calorimetry | 211.22
150 K, Crystal 2, Small (less than 1 g) adiabatic calorimetry | 226.25
150 K, Crystal 2, Vacuum adiabatic calorimetry | 226.24
150.66 K, Crystal 1, Small (less than 1 g) adiabatic calorimetry | 212.24
152.15 K, Crystal 1, Small (less than 1 g) adiabatic calorimetry | 213.41
152.37 K, Crystal 2, Small (less than 1 g) adiabatic calorimetry | 229.33
152.5 K, Crystal 1, Small (less than 1 g) adiabatic calorimetry | 214.29
154.33 K, Crystal 1, Small (less than 1 g) adiabatic calorimetry | 216.32
154.65 K, Crystal 1, Small (less than 1 g) adiabatic calorimetry | 216.65
154.75 K, Crystal 2, Small (less than 1 g) adiabatic calorimetry | 232.46
156.14 K, Crystal 1, Small (less than 1 g) adiabatic calorimetry | 218.31
157.14 K, Crystal 2, Small (less than 1 g) adiabatic calorimetry | 235.73
157.17 K, Crystal 1, Small (less than 1 g) adiabatic calorimetry | 219.23
157.94 K, Crystal 1, Small (less than 1 g) adiabatic calorimetry | 220.33
159.54 K, Crystal 2, Small (less than 1 g) adiabatic calorimetry | 238.88
159.69 K, Crystal 1, Small (less than 1 g) adiabatic calorimetry | 222.08
159.74 K, Crystal 1, Small (less than 1 g) adiabatic calorimetry | 222.37
160 K, Crystal 1, Vacuum adiabatic calorimetry | 222.43
160 K, Crystal 2, Vacuum adiabatic calorimetry | 239.47
161.51 K, Crystal 1, Small (less than 1 g) adiabatic calorimetry | 224.35
161.96 K, Crystal 2, Small (less than 1 g) adiabatic calorimetry | 242.01
162.23 K, Crystal 1, Small (less than 1 g) adiabatic calorimetry | 224.93
163.28 K, Crystal 1, Small (less than 1 g) adiabatic calorimetry | 226.23
164.39 K, Crystal 2, Small (less than 1 g) adiabatic calorimetry | 245.1
164.77 K, Crystal 1, Small (less than 1 g) adiabatic calorimetry | 227.75
164.86 K, Crystal 1, Small (less than 1 g) adiabatic calorimetry | 227.97
166.27 K, Crystal 1, Small (less than 1 g) adiabatic calorimetry | 229.58
166.83 K, Crystal 2, Small (less than 1 g) adiabatic calorimetry | 248.12
167.33 K, Crystal 1, Small (less than 1 g) adiabatic calorimetry | 230.64
167.66 K, Crystal 1, Small (less than 1 g) adiabatic calorimetry | 231.21
169.05 K, Crystal 1, Small (less than 1 g) adiabatic calorimetry | 232.8
169.28 K, Crystal 2, Small (less than 1 g) adiabatic calorimetry | 251.2
169.91 K, Crystal 1, Small (less than 1 g) adiabatic calorimetry | 233.56
170 K, Crystal 1, Vacuum adiabatic calorimetry | 233.66
170 K, Crystal 2, Vacuum adiabatic calorimetry | 252.09
170.44 K, Crystal 1, Small (less than 1 g) adiabatic calorimetry | 234.45
171.75 K, Crystal 2, Small (less than 1 g) adiabatic calorimetry | 254.25
171.81 K, Crystal 1, Small (less than 1 g) adiabatic calorimetry | 235.91
172.49 K, Crystal 1, Small (less than 1 g) adiabatic calorimetry | 236.43
173.18 K, Crystal 1, Small (less than 1 g) adiabatic calorimetry | 237.49
174.23 K, Crystal 2, Small (less than 1 g) adiabatic calorimetry | 257.27
174.55 K, Crystal 1, Small (less than 1 g) adiabatic calorimetry | 239.04
175.09 K, Crystal 1, Small (less than 1 g) adiabatic calorimetry | 239.43
175.91 K, Crystal 1, Small (less than 1 g) adiabatic calorimetry | 240.69
176.72 K, Crystal 2, Small (less than 1 g) adiabatic calorimetry | 260.38
177.26 K, Crystal 1, Small (less than 1 g) adiabatic calorimetry | 242.06
177.69 K, Crystal 1, Small (less than 1 g) adiabatic calorimetry | 242.43
178.61 K, Crystal 1, Small (less than 1 g) adiabatic calorimetry | 243.74
179.23 K, Crystal 2, Small (less than 1 g) adiabatic calorimetry | 263.65
179.95 K, Crystal 1, Small (less than 1 g) adiabatic calorimetry | 245.46
180 K, Crystal 1, Vacuum adiabatic calorimetry | 245.15
180 K, Crystal 2, Vacuum adiabatic calorimetry | 264.63
180.31 K, Crystal 1, Small (less than 1 g) adiabatic calorimetry | 245.52
181.28 K, Crystal 1, Small (less than 1 g) adiabatic calorimetry | 246.9
181.74 K, Crystal 2, Small (less than 1 g) adiabatic calorimetry | 266.86
182.62 K, Crystal 1, Small (less than 1 g) adiabatic calorimetry | 248.29
182.95 K, Crystal 1, Small (less than 1 g) adiabatic calorimetry | 248.51
183.94 K, Crystal 1, Small (less than 1 g) adiabatic calorimetry | 249.95
184.27 K, Crystal 2, Small (less than 1 g) adiabatic calorimetry | 270.08
185.26 K, Crystal 1, Small (less than 1 g) adiabatic calorimetry | 251.54
185.59 K, Crystal 1, Small (less than 1 g) adiabatic calorimetry | 251.57
186.58 K, Crystal 1, Small (less than 1 g) adiabatic calorimetry | 253
186.82 K, Crystal 2, Small (less than 1 g) adiabatic calorimetry | 273.41
187.89 K, Crystal 1, Small (less than 1 g) adiabatic calorimetry | 254.44
188.25 K, Crystal 1, Small (less than 1 g) adiabatic calorimetry | 254.7
189.2 K, Crystal 1, Small (less than 1 g) adiabatic calorimetry | 256.01
189.37 K, Crystal 2, Small (less than 1 g) adiabatic calorimetry | 276.6
190 K, Crystal 1, Vacuum adiabatic calorimetry | 256.78
190 K, Crystal 2, Vacuum adiabatic calorimetry | 277.35
190.5 K, Crystal 1, Small (less than 1 g) adiabatic calorimetry | 257.62
190.92 K, Crystal 1, Small (less than 1 g) adiabatic calorimetry | 257.87
191.8 K, Crystal 1, Small (less than 1 g) adiabatic calorimetry | 259.15
191.94 K, Crystal 2, Small (less than 1 g) adiabatic calorimetry | 279.67
193.09 K, Crystal 1, Small (less than 1 g) adiabatic calorimetry | 260.81
193.6 K, Crystal 1, Small (less than 1 g) adiabatic calorimetry | 261.01
194.38 K, Crystal 1, Small (less than 1 g) adiabatic calorimetry | 262.19
194.52 K, Crystal 2, Small (less than 1 g) adiabatic calorimetry | 282.72
195.67 K, Crystal 1, Small (less than 1 g) adiabatic calorimetry | 263.76
196.29 K, Crystal 1, Small (less than 1 g) adiabatic calorimetry | 264.21
196.94 K, Crystal 1, Small (less than 1 g) adiabatic calorimetry | 265.24
197.12 K, Crystal 2, Small (less than 1 g) adiabatic calorimetry | 285.61
198.22 K, Crystal 1, Small (less than 1 g) adiabatic calorimetry | 266.88
199 K, Crystal 1, Small (less than 1 g) adiabatic calorimetry | 267.79
199.49 K, Crystal 1, Small (less than 1 g) adiabatic calorimetry | 268.59
199.73 K, Crystal 2, Small (less than 1 g) adiabatic calorimetry | 288.75
200 K, Crystal 1, Vacuum adiabatic calorimetry | 269.03
200 K, Crystal 2, Vacuum adiabatic calorimetry | 289.06
200.76 K, Crystal 1, Small (less than 1 g) adiabatic calorimetry | 270.11
201.72 K, Crystal 1, Small (less than 1 g) adiabatic calorimetry | 271.16
202.02 K, Crystal 1, Small (less than 1 g) adiabatic calorimetry | 271.81
202.35 K, Crystal 2, Small (less than 1 g) adiabatic calorimetry | 291.75
203.27 K, Crystal 1, Small (less than 1 g) adiabatic calorimetry | 273.36
204.44 K, Crystal 1, Small (less than 1 g) adiabatic calorimetry | 274.73
204.53 K, Crystal 1, Small (less than 1 g) adiabatic calorimetry | 275.01
204.98 K, Crystal 2, Small (less than 1 g) adiabatic calorimetry | 294.58
205.77 K, Crystal 1, Small (less than 1 g) adiabatic calorimetry | 276.69
207.02 K, Crystal 1, Small (less than 1 g) adiabatic calorimetry | 278.34
207.18 K, Crystal 1, Small (less than 1 g) adiabatic calorimetry | 278.39
207.63 K, Crystal 2, Small (less than 1 g) adiabatic calorimetry | 297.45
208.26 K, Crystal 1, Small (less than 1 g) adiabatic calorimetry | 279.95
209.49 K, Crystal 1, Small (less than 1 g) adiabatic calorimetry | 281.68
209.93 K, Crystal 1, Small (less than 1 g) adiabatic calorimetry | 282.11
210 K, Crystal 1, Vacuum adiabatic calorimetry | 282.2
210 K, Crystal 2, Vacuum adiabatic calorimetry | 300.06
210.29 K, Crystal 2, Small (less than 1 g) adiabatic calorimetry | 300.38
210.72 K, Crystal 1, Small (less than 1 g) adiabatic calorimetry | 283.2
211.95 K, Crystal 1, Small (less than 1 g) adiabatic calorimetry | 284.9
212.69 K, Crystal 1, Small (less than 1 g) adiabatic calorimetry | 285.7
212.97 K, Crystal 2, Small (less than 1 g) adiabatic calorimetry | 303.2
213.18 K, Crystal 1, Small (less than 1 g) adiabatic calorimetry | 286.42
214.4 K, Crystal 1, Small (less than 1 g) adiabatic calorimetry | 288
215.46 K, Crystal 1, Small (less than 1 g) adiabatic calorimetry | 289.41
215.62 K, Crystal 1, Small (less than 1 g) adiabatic calorimetry | 289.65
215.65 K, Crystal 2, Small (less than 1 g) adiabatic calorimetry | 306.03
216.83 K, Crystal 1, Small (less than 1 g) adiabatic calorimetry | 291.26
218.04 K, Crystal 1, Small (less than 1 g) adiabatic calorimetry | 292.84
218.24 K, Crystal 1, Small (less than 1 g) adiabatic calorimetry | 293.08
218.35 K, Crystal 2, Small (less than 1 g) adiabatic calorimetry | 308.99
219.24 K, Crystal 1, Small (less than 1 g) adiabatic calorimetry | 294.47
220 K, Crystal 1, Vacuum adiabatic calorimetry | 295.42
220 K, Crystal 2, Vacuum adiabatic calorimetry | 310.55
220.45 K, Crystal 1, Small (less than 1 g) adiabatic calorimetry | 296.21
221.03 K, Crystal 1, Small (less than 1 g) adiabatic calorimetry | 296.79
